In PubChem BioAssay AID1845203 (Molecular Pharmacology Branch, DTP, NCI, 2023):

Test system: G-401 tumor spheroids, viability % test/control
Experiment: Anticancer human tumor G-401 cell line growth inhibition;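 further: spheroids exposed to compound for 7 days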;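 on viability, T/C: 100% = DMSO vehicle-treated spheroids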
Conditions: spheroids with HUVEC and MSC; for IC50: curve of first compound; for viability, T/C: stronger effect = lower value
How it was run: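 Single agents and combinations were tested on spheroids built from tumor cells plus HUVEC and hMSC, at half-log dilutions starting at or near clinical Cmax, else 10 microM; final DMSO 0.25% (v/v).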

[1] = second compound 1 µM, first compound 0.00949 µM
[2] = second compound 1 µM, first compound 0.03 µM
[3] = second compound 1 µM, first compound 0.0949 µM
[4] = second compound 1 µM, first compound 0.3 µM
[5] = second compound 1 µM, first compound 0.949 µM
[6] = second compound 1 µM, first compound 3 µM
[7] = second compound 3.16 µM, first compound 0.00949 µM
[8] = second compound 3.16 µM, first compound 0.03 µM
[9] = second compound 3.16 µM, first compound 0.0949 µM
[10] = second compound 3.16 µM, first compound 0.3 µM
[11] = second compound 3.16 µM, first compound 0.949 µM
[12] = second compound 3.16 µM, first compound 3 µM
[13] = second compound 10 µM, first compound 0.00949 µM
[14] = second compound 10 µM, first compound 0.03 µM
[15] = second compound 10 µM, first compound 0.0949 µM
[16] = second compound 10 µM, first compound 0.3 µM
[17] = second compound 10 µM, first compound 0.949 µM
[18] = second compound 10 µM, first compound 3 µM
[19] = second compound 31.6 µM, first compound 0.00949 µM
[20] = second compound 31.6 µM, first compound 0.03 µM
[21] = second compound 31.6 µM, first compound 0.0949 µM
[22] = second compound 31.6 µM, first compound 0.3 µM
[23] = second compound 31.6 µM, first compound 0.949 µM
[24] = second compound 31.6 µM, first compound 3 µM
[25] = second compound 100 µM, first compound 0.00949 µM
[26] = second compound 100 µM, first compound 0.03 µM
[27] = second compound 100 µM, first compound 0.0949 µM
[28] = second compound 100 µM, first compound 0.3 µM
[29] = second compound 100 µM, first compound 0.949 µM
[30] = second compound 100 µM, first compound 3 µM
[31] = second compound 1 µM, first compound 0.0316 µM
[32] = second compound 1 µM, first compound 0.1 µM
[33] = second compound 1 µM, first compound 0.316 µM
[34] = second compound 1 µM, first compound 1 µM
[35] = second compound 1 µM, first compound 3.16 µM
[36] = second compound 1 µM, first compound 10 µM
[37] = second compound 3.16 µM, first compound 0.0316 µM
[38] = second compound 3.16 µM, first compound 0.1 µM
[39] = second compound 3.16 µM, first compound 0.316 µM
[40] = second compound 3.16 µM, first compound 1 µM
[41] = second compound 3.16 µM, first compound 3.16 µM
[42] = second compound 3.16 µM, first compound 10 µM
[43] = second compound 10 µM, first compound 0.0316 µM
[44] = second compound 10 µM, first compound 0.1 µM
[45] = second compound 10 µM, first compound 0.316 µM
[46] = second compound 10 µM, first compound 1 µM
[47] = second compound 10 µM, first compound 3.16 µM
[48] = second compound 10 µM, first compound 10 µM
[49] = second compound 31.6 µM, first compound 0.0316 µM
[50] = second compound 31.6 µM, first compound 0.1 µM
[51] = second compound 31.6 µM, first compound 0.316 µM
[52] = second compound 31.6 µM, first compound 1 µM
[53] = second compound 31.6 µM, first compound 3.16 µM
[54] = second compound 31.6 µM, first compound 10 µM
[55] = second compound 100 µM, first compound 0.0316 µM
[56] = second compound 100 µM, first compound 0.1 µM
[57] = second compound 100 µM, first compound 0.316 µM
[58] = second compound 100 µM, first compound 1 µM
[59] = second compound 100 µM, first compound 3.16 µM
[60] = second compound 100 µM, first compound 10 µM

Compound `CNCc1ccc(-c2cc(-c3nc(-c4ccc(S(=O)(=O)C(C)C)cc4)cnc3N)on2)cc1` + Cn1nnc2c(C(N)=O)ncn2c1=O has an IC50 (second compound 1 µM) of 2010 nM, an IC50 (second compound 3.16 µM) of 1780 nM and an IC50 (second compound 10 µM) of 1060 nM. For the same compound, the IC50 (second compound 31.6 µM) was 917 nM, the IC50 (second compound 100 µM) was 323 nM and the viability, T/C [1] was 105%. For the same compound, the viability, T/C [2] was 108%, the viability, T/C [3] was 106% and the viability, T/C [4] was 106%. The viability, T/C [5] was 72.7%, the viability, T/C [6] was 37.8% and the viability, T/C [7] was 109%. For the same compound, the viability, T/C [8] was 105%, the viability, T/C [9] was 104% and the viability, T/C [10] was 103%. It also gave a viability, T/C [11] of 64.1%, a viability, T/C [12] of 38.4% and a viability, T/C [13] of 103%. For the same compound, the viability, T/C [14] was 97.6%, the viability, T/C [15] was 100% and the viability, T/C [16] was 99.2%. The viability, T/C [17] was 52.5%, the viability, T/C [18] was 25.4% and the viability, T/C [19] was 93.9%. The viability, T/C [20] was 94.7%, the viability, T/C [21] was 96.2% and the viability, T/C [22] was 85.1%. The viability, T/C [23] was 49%, the viability, T/C [24] was 20.4% and the viability, T/C [25] was 96.3%. For the same compound, the viability, T/C [26] was 98.7%, the viability, T/C [27] was 90.4% and the viability, T/C [28] was 51.7%. For the same compound, the viability, T/C [29] was 27.1% and the viability, T/C [30] was 25.7%.

For `Cc1cc(C)c(CNC(=O)c2cc(-c3ccc(CN4CCOCC4)cc3)cc3c2cnn3C2CCCC2)c(=O)[nH]1` + Cn1nnc2c(C(N)=O)ncn2c1=O, the IC50 (second compound 1 µM) was > 10000 nM, the IC50 (second compound 3.16 µM) was > 10000 nM and the IC50 (second compound 10 µM) was > 10000 nM. For the same compound, the IC50 (second compound 31.6 µM) was > 10000 nM, the IC50 (second compound 100 µM) was 8790 nM and the viability, T/C [31] was 111%. The viability, T/C [32] was 106%, the viability, T/C [33] was 95.8% and the viability, T/C [34] was 105%. The viability, T/C [35] was 87.9%, the viability, T/C [36] was 62.5% and the viability, T/C [37] was 103%. It also gave a viability, T/C [38] of 104%, a viability, T/C [39] of 105% and a viability, T/C [40] of 93.3%. The viability, T/C [41] was 80.6%, the viability, T/C [42] was 55.8% and the viability, T/C [43] was 103%. The viability, T/C [44] was 99%, the viability, T/C [45] was 97.1% and the viability, T/C [46] was 90.1%. For the same compound, the viability, T/C [47] was 82.6%, the viability, T/C [48] was 53.5% and the viability, T/C [49] was 94.3%. The viability, T/C [50] was 94.4%, the viability, T/C [51] was 92.9% and the viability, T/C [52] was 91.5%. It also gave a viability, T/C [53] of 80.5%, a viability, T/C [54] of 52% and a viability, T/C [55] of 96.5%. The viability, T/C [56] was 103%, the viability, T/C [57] was 94.3% and the viability, T/C [58] was 93.6%. The viability, T/C [59] was 74.2% and the viability, T/C [60] was 46.9%.

In the case of `Cc1sc2c(c1C)C(c1ccc(Cl)cc1)=NC(CC(=O)Nc1ccc(O)cc1)c1nnc(C)n1-2` (stereo not given) + Cn1nnc2c(C(N)=O)ncn2c1=O, the IC50 (second compound 1 µM) is reported as 169 nM, the IC50 (second compound 3.16 µM) is reported as 179 nM and the IC50 (second compound 10 µM) is reported as 163 nM. It also gave an IC50 (second compound 31.6 µM) of 147 nM, an IC50 (second compound 100 µM) of 148 nM and a viability, T/C [1] of 108%. The viability, T/C [2] was 83%, the viability, T/C [3] was 67.4% and the viability, T/C [4] was 37.6%. It also gave a viability, T/C [5] of 13.4%, a viability, T/C [6] of 10.3% and a viability, T/C [7] of 93%. The viability, T/C [8] was 91.8%, the viability, T/C [9] was 65.1% and the viability, T/C [10] was 35.6%. The viability, T/C [11] was 19.7%, the viability, T/C [12] was 8.06% and the viability, T/C [13] was 101%. The viability, T/C [14] was 77.3%, the viability, T/C [15] was 63.5% and the viability, T/C [16] was 38%. It also gave a viability, T/C [17] of 20.9%, a viability, T/C [18] of 9.13% and a viability, T/C [19] of 84.5%. For the same compound, the viability, T/C [20] was 82.6%, the viability, T/C [21] was 56.1% and the viability, T/C [22] was 34%. The viability, T/C [23] was 20.5%, the viability, T/C [24] was 4.42% and the viability, T/C [25] was 102%. For the same compound, the viability, T/C [26] was 83%, the viability, T/C [27] was 64.8% and the viability, T/C [28] was 30.4%. The viability, T/C [29] was 11.2% and the viability, T/C [30] was 4.09%.

`Cn1ncnc1[C@H]1c2n[nH]c(=O)c3cc(F)cc(c23)N[C@@H]1c1ccc(F)cc1` + Cn1nnc2c(C(N)=O)ncn2c1=O was tested, and the IC50 (second compound 1 µM) was 156 nM, the IC50 (second compound 3.16 µM) was 57.5 nM and the IC50 (second compound 10 µM) was 22.2 nM. The IC50 (second compound 31.6 µM) was < 9.49 nM, the IC50 (second compound 100 µM) was < 9.49 nM and the viability, T/C [1] was 81.7%. It also gave a viability, T/C [2] of 73.9%, a viability, T/C [3] of 57.2% and a viability, T/C [4] of 39.6%. For the same compound, the viability, T/C [5] was 23.3%, the viability, T/C [6] was 12.6% and the viability, T/C [7] was 87.8%. For the same compound, the viability, T/C [8] was 54.6%, the viability, T/C [9] was 45.3% and the viability, T/C [10] was 30.5%. It also gave a viability, T/C [11] of 23.4%, a viability, T/C [12] of 13.2% and a viability, T/C [13] of 63%. It also gave a viability, T/C [14] of 44.9%, a viability, T/C [15] of 32.4% and a viability, T/C [16] of 23.3%. It also gave a viability, T/C [17] of 15.7%, a viability, T/C [18] of 10.4% and a viability, T/C [19] of 35.6%. The viability, T/C [20] was 21.3%, the viability, T/C [21] was 16.4% and the viability, T/C [22] was 13.9%. The viability, T/C [23] was 10.4%, the viability, T/C [24] was 9.51% and the viability, T/C [25] was 14.1%. It also gave a viability, T/C [26] of 11.6%, a viability, T/C [27] of 10.8% and a viability, T/C [28] of 10.3%. It also gave a viability, T/C [29] of 8.87% and a viability, T/C [30] of 6.62%.

`[2H]c1nc(C)nc([2H])c1-c1cc(NC[C@@H](C)c2cccc3c(C(=O)NC)ccnc23)ncn1` + Cn1nnc2c(C(N)=O)ncn2c1=O was tested, and the IC50 (second compound 1 µM) was > 10000 nM, the IC50 (second compound 3.16 µM) was > 10000 nM and the IC50 (second compound 10 µM) was > 10000 nM. For the same compound, the IC50 (second compound 31.6 µM) was > 10000 nM, the IC50 (second compound 100 µM) was > 10000 nM and the viability, T/C [31] was 101%. It also gave a viability, T/C [32] of 106%, a viability, T/C [33] of 110% and a viability, T/C [34] of 102%. For the same compound, the viability, T/C [35] was 107%, the viability, T/C [36] was 103% and the viability, T/C [37] was 105%. It also gave a viability, T/C [38] of 99.3%, a viability, T/C [39] of 101% and a viability, T/C [40] of 99.8%. It also gave a viability, T/C [41] of 105%, a viability, T/C [42] of 103% and a viability, T/C [43] of 93%. It also gave a viability, T/C [44] of 99.6%, a viability, T/C [45] of 101% and a viability, T/C [46] of 96%. For the same compound, the viability, T/C [47] was 108%, the viability, T/C [48] was 94% and the viability, T/C [49] was 96.3%. For the same compound, the viability, T/C [50] was 101%, the viability, T/C [51] was 99.7% and the viability, T/C [52] was 100%. The viability, T/C [53] was 94.2%, the viability, T/C [54] was 97.4% and the viability, T/C [55] was 95.9%. For the same compound, the viability, T/C [56] was 94.8%, the viability, T/C [57] was 105% and the viability, T/C [58] was 92.8%. For the same compound, the viability, T/C [59] was 89.6% and the viability, T/C [60] was 86.5%.
